Results as given in US10695341B2, “Compositions and methods for treating endometriosis” (UNIVERSITY OF SOUTH FLORIDA, priority 2014, dated 2020).

Experiments:
[1] = test system: LC3B-II; experiment: Western blot for LC3B, life-extended human endometriotic cells, HCQ; assay type: cell-based; conditions: 25 μM HCQ, 18 hours
[2] = test system: uterine horns and ovaries; experiment: Murine tissue microarray H&E and immunohistochemistry (uterine horns, ovaries); assay type: in vivo, mouse
Source text: To determine whether HCQ treatment alters the histopathology (tissue organization) of the recipient's uterine horns and other tissues, a murine tissue microarray (TMA) comprised of 113 cores and performed H&E as well as immunohistochemical staining was developed. The TMA contained uterine horns and ovaries from 10 PBS- and 10 HCQ-treated mice, as well as a mammary gland, a kidney, a lymph node and a small intestine from a PBS-treated mouse for use as antibody controls. […] Estrogen receptor α (ERα) was primarily localized to the epithelial cell layer of the endometrial glands, while progesterone receptor (PR) appeared to be evenly distributed between the stromal and epithelial cell compartments. However, the PR staining was comparatively much weaker to that for ERα. […] LC3B expression appeared more intense in HCQ-treated mice relative to PBS-treated mice in both the stromal and epithelial compartments (FIGS. 19A-19X). […] Collected samples were immediately preserved in 10% neutral buffered formalin at the animal facility. Samples were embedded in paraffin, sectioned, and transferred to slides for hematoxylin/eosin and immunohistochemical staining. A pathologist reviewed each case and delimited the region of interest, containing epithelial and stromal cells, for each specimen. A mouse tissue microarray was prepared at the Tissue Core Facility at the Moffitt Cancer Center. The mouse tissue microarray contained a total of 113 core samples, which included 10 uterine horns and 10 ovaries from both PBS and HCQ treated mice. As control specimens for the utilized antibodies, the TMA included mouse mammary tissue, […], small intestine, and lymph nodes from a PBS treated mouse. Lesions were analyzed from independent blocks. Slides were stained using a Leica Bond RX automated system (Leica Biosytems, Buffalo Grove, Ill.) following manufacturers instructions with proprietary reagents. Slides were deparaffinized on an automated system with Dewax Solution (Leica Biosystems). The antigen retrieval method used for Progesterone Receptor (PR) was enzymatic with Enzyme Solution 1 at 15 min (Leica), for vimentin and Estrogen Receptor (ER) was heat induced with Epitope Retrieval Solution 1 at 20 min (Leica), for cytokeratin 8 (CK-8) was heat induced with Epitope Retrieval Solution at 10 min (Leica), and for LC3B was heat-induced with Epitope Retrieval Solution 1 at 10 min (Leica Biosystems). All antibodies were diluted in Dako antibody diluent (Carpenteria, Calif.): PR (# ab131486, 1:500, Abcam, Cambridge, Mass.), vimentin (#5741 (D21H3), 1:100, Cell Signaling, Danvers, Mass.), ERα (# ab32063 ([…]), 1:200, Abcam, Cambridge, Mass.), Cytokeratin-8 (# ab53280 (E[…]), 1:200, Abcam, Cambridge, Mass.), and LC3B (# ab51520, 1:1,500, Abcam, Cambridge, Mass.) and incubated for 30 min. The Leica Bond Polymer Refine Detection System was used with a polymer incubation for 8 min. Hematoxylin was used as counterstain and slides were dehydrated and covered with a coverslip, following standard histological protocol.

[3] = test system: life-extended human endometriotic cells; experiment: CellTiter-glo survival assay, life-extended human endometriotic cells, HCQ; assay type: cell-based; conditions: 25 μM HCQ, 5 days, cells from two different types of lesions, p<0.0001
Protocol: Primary human endometriotic cells culture conditions and life extension have been previously described. These cells were derived from two different types of lesions (two independent patients) which were assessed separately as described below. Briefly, cells were maintained in MCDB 131:Medium 199 (1:1 ratio) supplemented with 8% FBS, penicillin/streptomycin, and insulin/transferrin/selenium (ITS). Cells were life-extended using SV40 Large T antigen. Retroviral particles generated in HEK293T were used to infect the primary cells. Media containing puromycin (2.5 μg/ml) was used to select primary cells resistant colonies. In addition, we obtained the T-HESC cell line, which are human endometrial stromal cells derived from a uterine myoma (ATCC, Manassas, Va.). This cell line was maintained in phenol red-free DMEM/F12 (1:1) containing 8% charcoal-dextran treated FBS, 500 ng/mL puromycin, 1% ITS+ Premix (BD Bioscience, San Jose, Calif.), and 15 mM HEPES. The cell lines used in the present study were tested to be mycoplasma negative and STR (short tandem repeat) profiled (Genetica DNA Laboratories, Cincinnati, Ohio). Endometriotic cells were seeded at 50,000 cells/well in a 24-well plate, whereas T-HESC cells were seeded at 250,000 cells/well in a 6-well plate. […] Cell viability was then assessed using CellTiter-glo reagent (Promega, Madison, Wis.).

CCN(CCO)CCCC(C)Nc1ccnc2cc(Cl)ccc12 (stereo not shown) [HCQ, hydroxychloroquine]
LC3B-II protein (western blot) [1]: increased | luminal epithelium of the uterine horn endometrium (H&E, TMA) ([2]; HCQ-treated mice): irregular pattern | intensity or localization of IHC markers in ovaries ([2]; HCQ-treated relative to PBS-treated mice): no marked differences | ERα and PR staining pattern or intensity in uterine horns ([2]; PBS vs HCQ-treated mice): no differences | vimentin and CK8 localization in uterine horns ([2]; stromal and epithelial compartments, independently of HCQ treatment): appropriately localized | LC3B expression in uterine horns (IHC) ([2]; stromal and epithelial compartments, relative to PBS): more intense | cell survival of human endometriotic cells [3]: marked reduction
